Read-outs that look alike come from different tables or passages of the source.
Columns and labels:
[1] = target: β-lactamase-conjugated secondary antibody (Escherichia coli, UniProt P62593); assay: Fluorogenic sandwich ELISA for prostate specific antigen (PSA); details: 1 μg substrate; fluorogenic assay
Method: For the fluorogenic assay, 100 μl/well of a 10 μg/ml solution of anti-prostate specific antigen (PSA) antibody was applied to microplate wells. After incubation and washes, a dilution series of purified PSA was applied, and detection was achieved using 100 μl of a 10 μg/ml of an anti-PSA primary antibody and 100 μl of a 10 μg/ml of a β-lactamase-conjugated secondary antibody in the presence of 1 μg Compound 108 substrate (with appropriate washes between steps). The Z-statistic^1 gives a lower limit of detection of PSA in this assay of 16 pg/ml. For the colorimetric assay, a commercially available kit for the detection of PSA in human serum or plasma was used according to the manufacturers instructions. The assay was performed using the PSA standards provided in the kit. […] The reaction was stopped after 15 minutes using the stop solution provided in the kit and the absorbance was read at 450 nm. […]
Optimal concentrations for use in ELISA-format assays was determined experimentally using a model sandwich ELISA to detect human Prostate Specific Antigen (PSA). […] The PSA standards were detected with a polyclonal rabbit anti-PSA antibody, then a secondary conjugate of goat anti-rabbit TEM-1. Plates were developed by addition of a β-lactamase substrate solution to drained wells, then measurement of fluorescence on the Tecan Safire fluorescence plate reader.

[2] = pH range, hydrolysis rate: background fluorescence of substrate in buffers without enzyme; type: physicochemical; details: for increase in fluorescence due to hydrolysis (percentage of maximum fluorescence): 1 μg/mL, over 250 min; for time to complete hydrolysis: assumes a constant rate of hydrolysis
Method: Compound 108 was prepared at a concentration of 1 μg/ml in three different buffers: MES at pH 5.5, PBS at pH 7.2, and Tris at pH 8.0. The substrate solutions were applied to the wells of a microplate, the plate was protected from light, and fluorescence values were gathered at time points from 10-250 minutes. […] Maximum signal was determined by the fluorescence value obtained when 10 μl of a 100 μg/ml solution of β-lactamase was added to control wells. Each point is the mean of 12 replicates. See, Example 32.
Solutions of Compound 108 (1 μg/mL) were prepared in pH 5.5 MES, pH 7.2 PBS, and pH 8.0 Tris-HCl, then added to 16 wells of a 96-well plate. For each pH, high concentrations of TEM-1 were added to 4 wells to obtain a maximum signal (assuming complete cleavage of all substrate). The entire plate was read every 15 min. for 250 min. All fluorescent signals were averaged, then normalized to a percentage of the maximum fluorescence. […] The Tris-HCl samples increased in fluorescence about 7.5% over 250 min., corresponding to complete hydrolysis after about 55 hrs. […] These estimations assume a constant rate of hydrolysis.

TEM-1 β-lactamase = TEM-1 β-lactamase (Escherichia coli, UniProt P62593); assay: Fluorescence from precipitating β-lactamase substrate in 96-well microplate; type: biochemical
Method: This was diluted 2-fold in methanol to give a working solution of 1 mM. 20 μL of 250 nM TEM-1 β-lactamase was added to the wells of a 96-well microplate. Appropriate volumes of substrate were added to the wells to give final concentrations of 0, 30, 50, 60, 75, 100, 140, 160 and 200 uM after diluting to 100 μL with 100 mM phosphate, 150 mM NaCl (pH7.1). The final β-lactamase concentration was 50 nM. Samples were excited @ 360 nm and fluorescence was measured @ 450 nm, signal was read @ 5, 13, 19, 26, 35, 45, 51 and 65 minutes. Maximum signal was attained after 5 minutes.

TEM-1 = TEM-1 (Escherichia coli, UniProt P62593); details: read-out: Km (μM) difluoro sub., 5 nM TEM-1, PBS, pH 7.2
Chain of TEM-1 (P62593 24-286 limits assumed): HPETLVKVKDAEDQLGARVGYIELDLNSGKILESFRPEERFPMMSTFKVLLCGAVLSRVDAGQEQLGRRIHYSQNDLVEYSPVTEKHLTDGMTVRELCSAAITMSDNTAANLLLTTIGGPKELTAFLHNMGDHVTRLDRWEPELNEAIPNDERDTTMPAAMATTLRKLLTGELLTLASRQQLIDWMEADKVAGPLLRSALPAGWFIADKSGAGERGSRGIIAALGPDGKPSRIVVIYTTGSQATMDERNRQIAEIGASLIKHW
Method: For determination of Km of the β-lactamase substrate with TEM-1, substrates ranging from 40 μg/mL to 5 μg/mL were added to microplate wells with a constant concentration of 5 nM TEM-1. The plate was read for the first 5 minutes with a Tecan Safire fluorescence plate reader using a constant gain setting. Relative Fluorescence Units (RFUs) were converted into moles of product produced using a standard curve of the substrate's fluorescent product. This standard curve was produced by adding an excess of TEM-1 (0.5 μM) to an equal volume of substrate, and incubating for more than 1 hour. Substrate standard concentrations ranged from ˜16 nM to 2 μM. It was assumed the reaction went to completion. All enzyme and substrate solutions were prepared in PBS, pH 7.2.

Chain of TEM-1 β-lactamase (P62593 24-286 limits assumed): as above
Chain of β-lactamase-conjugated secondary antibody (P62593 24-286 limits assumed): as above

O=C(Cc1cccs1)NC1C(=O)N2C(C(=O)O)=C(/C=C/COc3cc4c(cc3F)C3(OC(=O)c5ccccc53)c3cc(F)c(OC/C=C/C5=C(C(=O)O)N6C(=O)C(NC(=O)Cc7cccs7)C6[S+]([O-])C5)cc3O4)C[S+]([O-])C12 (stereo not drawn) [Compound 108]
lower limit of detection of PSA (Z-statistic) [1]: 16 pg/mL
increase in fluorescence due to hydrolysis (percentage of maximum fluorescence) ([2]; pH 5.5 MES and pH 7.2 PBS): about 3.25%
time to complete hydrolysis ([2]; pH 5.5 MES and pH 7.2 PBS): about 128 hrs
hydrolysis rate in pH 8.0 Tris-HCl relative to pH 5.5 MES and pH 7.2 PBS ([2]; pH 8.0 Tris-HCl vs MES/PBS): about double
increase in fluorescence due to hydrolysis (percentage of maximum fluorescence) ([2]; pH 8.0 Tris-HCl): about 7.5%
time to complete hydrolysis ([2]; pH 8.0 Tris-HCl): about 55 hrs

O=C(Cc1cccs1)NC1C(=O)N2C(C(=O)O)=C(COc3ccccc3-c3nc4ccccc4c(=O)[nH]3)C[S+]([O-])C12 (stereo not drawn) [Compound 38]
fluorescence enhancement upon reaction w/β-lactamase (TEM-1 β-lactamase; 50 nM β-lactamase, excitation 360 nm, emission 450 nm, pH 7.1): ≥ 90 fold
time at which maximum signal was attained (TEM-1 β-lactamase; 50 nM β-lactamase, pH 7.1): 5 min
reaction with β-lactamase in the presence of 40% methanol (TEM-1 β-lactamase; 40% methanol): no reaction occurred
signal at high concentrations of substrate (TEM-1 β-lactamase; substrate up to 200 uM, presumably due to decreased solubility): signal dropped

O=C(Cc1cccs1)NC1C(=O)N2C(C(=O)O)=C(C=CCOc3cc4c(cc3F)C3(OC(=O)c5ccccc53)c3cc(F)c(OCC=CC5=C(C(=O)O)N6C(=O)C(NC(=O)Cc7cccs7)C6[S+]([O-])C5)cc3O4)C[S+]([O-])C12 (stereo not drawn) [Compound 108]
Km (TEM-1; Lineweaver-Burk plot): 40 µM
Km (TEM-1; Scatchard plot): 36 µM

From patent US8865891B2, “Optically-detectable enzyme substrates and their method of use” (priority 2004, dated 2014)
